Our source for the IC50 values is ChEMBL document CHEMBL6103651, “Total Syntheses, Absolute Configuration, and Cytotoxicity Evaluation of Ugonins L, S, U, and Z from the Rhizomes of Helminthostachys zeylanica” (J Nat Prod, 2025).

As a reminder, the IC50 is the concentration that gives 50% inhibition.

One data set relates to CCRF-CEM. The data set is described as follows: Cytotoxicity against human CEM cells assessed as cell growth inhibition incubated for 6 hrs by SRB assay. Format: functional, cell-based. In general terms: The SRB assay estimates cell density from bound dye.
The test system of a further data set is MCF7. The data set is described as follows: Cytotoxicity against human MCF7 cells assessed as cell growth inhibition incubated for 6 hrs by SRB assay. Format: functional, cell-based. Conditions: MCF7, 6 h.
The subject of the next data set is HT-29. Kind of data set: Cytotoxicity against human HT-29 cells assessed as cell growth inhibition incubated for 6 hrs by SRB assay. Format: functional, cell-based. Conditions: HT-29, 6 h.
A short description of data set [1]: Cytotoxicity against fibroblasts (unknown origin) assessed as cell growth inhibition incubated for 6 hrs by SRB assay. It is filed as toxicity, cell-based, Fibroblast.
In another data set the test system is NCI-H460. Kind of data set: Cytotoxicity against human NCI-H460 cells assessed as cell growth inhibition incubated for 6 hrs by SRB assay. It is filed as functional, cell-based. Conditions: NCI-H460, 6 h.

Consider `CC1(C)CCC[C@]2(C)Oc3c(c(O)cc4oc(-c5ccc(O)c(O)c5)cc(=O)c34)C[C@H]12`, for which the IC50 with CCRF-CEM was determined as 5.9 µM; in the data set with MCF7, 18.9 µM; in the data set on HT-29, 34.1 µM. Also, the IC50 at 6 h in data set [1] came to 34.1 µM.
For the molecule `CC1(C)CCC[C@@]2(C)Oc3c(c(O)cc4oc(-c5ccc(O)c(O)c5)cc(=O)c34)C[C@H]12`, the concentration for half-maximal inhibition (IC50) in the data set with CCRF-CEM came out at 4.8 µM; with MCF7 it was 17.7 µM; with HT-29 it was 36 µM. In addition, the IC50 at 6 h in data set [1] was determined as 36 µM.
Take `CC1(C)CCC[C@]2(C)Oc3cc4oc(-c5ccc(O)c(O)c5)cc(=O)c4c(O)c3C[C@H]12`: the IC50 stood at 2.2 µM with NCI-H460, 4.2 µM in the data set with CCRF-CEM, 16.7 µM in the data set with MCF7 and 21.9 µM with HT-29. Further, the IC50 at 6 h in data set [1] was found to be 24.5 µM.
Regarding `CC1(C)CCC[C@]2(C)Oc3c(c(O)cc4oc(-c5ccc(O)c(O)c5)cc(=O)c34)C[C@@H]12`, the 50% inhibitory concentration (IC50) in the data set on CCRF-CEM is 4.2 µM; with MCF7, 6.5 µM; in the data set on HT-29 it was 24.5 µM. Besides, the IC50 at 6 h in data set [1] was found to be 24.5 µM.
For `CC1(C)CCC[C@@]2(C)Oc3cc(O)c4c(=O)cc(-c5ccc(O)c(O)c5)oc4c3C[C@@H]12`, the IC50 is 18.3 µM with NCI-H460, 16.4 µM with CCRF-CEM, 28.2 µM in the data set on MCF7 and 27.5 µM with HT-29. Also, the IC50 at 6 h in data set [1] came to 27.5 µM.
On to `CC1(C)CCC[C@]2(C)Oc3cc(O)c4c(=O)cc(-c5ccc(O)c(O)c5)oc4c3C[C@H]12`, for which the IC50 turned out to be 17.5 µM with NCI-H460, 1.7 µM in the data set on CCRF-CEM, 26 µM in the data set with MCF7 and 33.2 µM in the data set on HT-29. In data set [1], the concentration for half-maximal inhibition (IC50) at 6 h is 33.2 µM.
For the molecule `CC1(C)CCC[C@@]2(C)Oc3cc4oc(-c5ccc(O)c(O)c5)cc(=O)c4c(O)c3C[C@@H]12`, the IC50 in the data set on NCI-H460 was 7.1 µM; with CCRF-CEM it was 5.2 µM; in the data set with MCF7, 19.1 µM; with HT-29 it was 37.1 µM. In addition, the IC50 at 6 h in data set [1] was found to be 37.1 µM.
On to `COc1cccc2c1C(=O)c1c(O)c3c(c(O)c1C2=O)C[C@@](O)(C(=O)CO)C[C@@H]3O[C@H]1C[C@H](N)[C@H](O)[C@H](C)O1` [DOXORUBICIN], for which the concentration for half-maximal inhibition (IC50) with NCI-H460 turned out to be 0.01 µM; in the data set with CCRF-CEM, 0.11 µM; in the data set on MCF7, 0.54 µM; with HT-29, 0.23 µM. In addition, the IC50 at 6 h in data set [1] is 56.3 µM.
Take `CC1(C)CCC[C@@]2(C)Oc3c(c(O)cc4oc(-c5ccc(O)c(O)c5)cc(=O)c34)C[C@@H]12` [UGONIN S]: the half-maximal inhibitory concentration (IC50) amounted to 6.2 µM with CCRF-CEM, 8.8 µM in the data set with MCF7 and 21.9 µM with HT-29. In data set [1], the 50% inhibitory concentration (IC50) at 6 h worked out at 21.9 µM.
